{
  "source": "patent US11739083B2",
  "about": "“Disposable sensor chip with reagent including 2-substituted benzothiazolyl-3-substituted phenyl-5-substituted sulfonated phenyl-2H-tetrazolium salt” (TERUMO KABUSHIKI KAISHA, priority 2016, dated 2023)",
  "key": {"[1]": {"assay": "Evaluation of stability (absorbance increase of measurement solution over 6 hours)", "settings": "FIG. 3; absorbance increase per hour over 6 hours", "experimental": "To 0.02 mmol of each compound, 75 μL of RO water and 100 μL of a 0.5 M MOPS solution (pH 7.2) were added, and the compound was dissolved therein. The solution was used as a sample.\nTo 175 μL of this sample, 10 μL of the GDH solution, 5 μL of the m-PMS solution, and 10 μL of the nickel solution, all of which had been produced in the same manner as in the above section (Evaluation of sensitivity), were added, and thereby a measurement solution was produced.\nAs a control, 85 μL of RO water and 100 μL of a 0.5 M MOPS solution (pH 7.2) were added to 11.6 mg of 2-benzothiazolyl-3-(4-carboxy-2-methoxyphenyl)-5-[4-(2-sulfoethylcarbamoyl)phenyl]-2H-tetrazolium (WST-4), and the compound was dissolved. Thus, a control sample was produced. […] Thus, a control reaction solution was produced.\nAt the time of production of the measurement solution (0 hour), and after 1 hour, 2 hours, and 6 hours from the production, the spectra of the measurement solutions produced as described above were measured using a spectrophotometer (measurement cell length: 50 μm) (n=1). For each spectrum, the absorbance at the maximum absorption wavelength (λmax) of each compound as determined above was measured. The absorbances measured at the time of production of the measurement solution (0 hour) and after 6 hours from the production were designated as Abs0 h and Abs6 h, respectively. […]"}, "[2]": {"assay": "Maximum absorption wavelength (λmax) of formazan-nickel chelate by spectrophotometer", "type": "physicochemical", "settings": "chelate of formazan and nickel ion, aqueous MOPS, cell length 10 mm, n=1", "description": "10 mM aqueous solution of MOPS was added to each of the formazan compounds so as to obtain a final concentration of […], and thereby 100 μL of a sample was produced. At this time, all of the samples were red-brown in color. Apart from this, a 1 M aqueous solution of nickel ion was produced.\nFor mixed solutions of various compounds in an aqueous solution of formazan and an aqueous solution of nickel, the spectra were measured with a spectrophotometer (measurement cell length: 10 mm) (n=1). Based on each of the spectra, the maximum absorption wavelength (λmax) (nm) of each of the compounds in formazan was determined. From FIG. 1, it is understood that the maximum absorption wavelength (λmax) of the chelate compound of formazan compound 1 and nickel ion is 630 nm.\nThe absorbance at the maximum absorption wavelength is denoted as 100%."}, "[3]": {"assay": "Evaluation Example 1: evaluation as blood glucose meter sensor", "description": "Separately, 100 μL of RO water was added to 7 mg of a glucose dehydrogenase (GDH-FAD) (manufactured by TOYOBO CO., LTD., product No.: GLD-351) to dissolve the enzyme, and thus a GDH solution was produced. Furthermore, 200 μL of RO water was added to 3.5 mg of 1-methoxy-5-methylphenazium methyl sulfate (m-PMS) (manufactured by DOJINDO LABORATORIES) to dissolve the compound, and thus an s-PMS solution was produced. 1 mL of RO water was added to 129 mg of nickel chloride to dissolve the salt, and thus a nickel solution was produced.\nThe coating liquid obtained as described above was applied on a PET film, and a reagent ribbon 1 was produced. The area of coating was 1.5 mm×75 mm (total coating amount 5.6 μL). This reagent ribbon 1 was cut in the longitudinal direction, and a reagent piece 2 was obtained (1.5 mm×3 mm).\nAlong the two edges of a PET film 5 that would become one surface of a blood glucose meter sensor, a double-sided tape having a thickness of […] was provided as a spacer. […]\nA whole blood sample (Ht40, 100 mg/dL) (hematocrit value 40%, glucose concentration 100 mg/dL) was spotted at the flow channel inlet port of the blood glucose meter sensor thus produced. The whole blood sample (Ht40, 100 mg/dL) was produced as follows: whole blood was collected into a heparin-containing blood sampling tube, the hematocrit value of this whole blood was measured, and the hematocrit value of the whole blood sample was regulated to be Ht40 by adding the blood plasma obtained by separation in advance, or by removing the blood plasma of the whole blood sample, as appropriate. […] The specimen was spotted on the reagent part, and then after 9 seconds, the spectrum was measured using a fiber spectrophotometer. The absorbance at the maximum absorption wavelength was measured using the spectrum measured with each of the blood glucose meter sensors that used various compounds. The absorbance obtainable in the case of measuring the whole blood sample (Ht40, 100 mg/dL) was designated as AbsBG100. […]"}, "[4]": {"assay": "Evaluation of water-solubility (visual check for precipitate)", "type": "physicochemical", "settings": "RO water / 0.5 M MOPS solution (1:1), aqueous buffer, thermodynamic from solid; RO water and 0.5 M MOPS pH 7.2; 200, 100, 20 mM; stirred 5 minutes", "description": "After the mixture was stirred for 5 minutes, a precipitate was checked by visual inspection. […] After the mixture was stirred for 5 minutes, a precipitate was checked by visual inspection. […] After the mixture was stirred for 5 minutes, a precipitate was checked by visual inspection."}, "[5]": {"assay": "Evaluation Example 3: estimation of molar extinction coefficient", "type": "physicochemical", "settings": "colored chelate compound of formazan and Ni2+ at λmax=635 nm; FIG. 18", "description": "A measurement solution was produced in the same manner as described in the section for the evaluation of the chelation rate and the maximum absorption wavelength (λmax), using the tetrazolium compound 1 of Example 1.\nEstimation of the molar extinction coefficient was carried out using the blood glucose meter sensor of FIG. 13. At this time, it is assumed that tetrazolium compound 1 reacts with glucose at a ratio of 1:1 (molar ratio). The concentration (mol/L) of β-glucose include in the spotted aqueous glucose solution was designated as x, and the value obtained by calculating the absorbance at 630 nm of the blood glucose meter sensor having aqueous glucose solution spotted thereon, to a value per 1 cm, was designated as y. The gradient of a straight line obtained at that time is designated as the molar extinction coefficient (calculated based on a glucose molecular weight 180.16, and a β-glucose ratio in the solution of 62%).\nFIG. 18 presents a graph obtained when the concentration (mol/L) of β-glucose was used as x value, and the absorbance at λmax=635 nm of colored chelate compound of formazan and Ni^2+, which was calculated into a value per 1 cm (abs/cm), was used as y value. From the graph, the molar extinction coefficient at λmax=635 nm of a colored chelate compound of formazan and Ni^2+ is ε=22,594 L/mol·cm."}},
  "data": [
    {"smiles": "COc1ccc2nc(-n3nc(-c4ccc(S(=O)(=O)O)cc4S(=O)(=O)[O-])n[n+]3-c3ccc(OC)c(S(=O)(=O)O)c3)sc2c1", "note": "[Example 1]", "values": [
      {"measurement": "[(Abs6 h−Abs0 h)/6] value", "setting": "[1]", "value": "about 0.008"},
      {"measurement": "Maximum absorption wavelength (λmax)", "setting": "[2]", "value": 630, "unit": "nm"},
      {"measurement": "time to completion of color development", "setting": "[3]; whole blood and aqueous glucose solution, absorbance at 630 nm, FIG. 7", "value": 5, "unit": "s"},
      {"measurement": "absorbance", "setting": "[3]; whole blood and aqueous glucose solutions, 9 seconds from initiation of reaction, FIG. 6", "value": "higher than 0.2"},
      {"measurement": "color development (ΔAbs=AbsBG100−AbsBG0) relative to WST-4 (650 nm)", "setting": "[3]; whole blood sample Ht40, 100 mg/dL, 9 seconds, FIG. 5", "value": "about 3 times"},
      {"measurement": "solubility at 5 min", "setting": "[4]", "value": "> 200", "unit": "mM"},
      {"measurement": "molar extinction coefficient ε", "setting": "[5]", "value": "22,594 L/mol·cm"}
    ]}
  ]
}
